Paper PMC8605023 (Nature Communications, 2021)
Peptide text beside a SMILES is read from it.

Experiments:
Assay in all cases: biochemical
Format in all cases: binding
AP2M1 = target: T1, AP2M1 (Homo sapiens, UniProt Q96CW1)
T1 construct: His-GST (cleaved yes); made in house; host or cells: E. coli BL21-Gold(DE3)
T1 sequence (Q96CW1 160-435 limits assumed): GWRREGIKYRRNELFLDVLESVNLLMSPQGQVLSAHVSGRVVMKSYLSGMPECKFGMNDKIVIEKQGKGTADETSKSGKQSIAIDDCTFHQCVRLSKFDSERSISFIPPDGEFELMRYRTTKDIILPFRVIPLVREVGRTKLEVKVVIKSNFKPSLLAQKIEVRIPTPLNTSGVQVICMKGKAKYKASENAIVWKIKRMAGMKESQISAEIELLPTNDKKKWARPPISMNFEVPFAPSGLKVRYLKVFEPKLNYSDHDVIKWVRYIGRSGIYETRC

NTF2 domain of G3BP2 = target: T2, NTF2 domain of G3BP2 (Homo sapiens, UniProt Q9UN86)
T2 construct: made in house; host or cells: E. coli BL21-Gold(DE3)
T2 sequence (Q9UN86 11-133 limits assumed): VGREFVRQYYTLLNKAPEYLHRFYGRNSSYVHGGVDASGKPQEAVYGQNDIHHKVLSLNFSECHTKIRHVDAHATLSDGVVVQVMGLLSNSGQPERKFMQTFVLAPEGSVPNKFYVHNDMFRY

NTF2 domain of G3BP1 = target: T3, NTF2 domain of G3BP1 (Homo sapiens, UniProt Q13283)
T3 construct: made in house; host or cells: E. coli BL21-Gold(DE3)

USP7 = target: T4, USP7 (Homo sapiens, UniProt Q93009)
T4 construct: His-GST (cleaved yes); made in house; host or cells: E. coli BL21-Gold(DE3)

MAP1LC3C = target: T5, MAP1LC3C (Homo sapiens, UniProt Q9BXW4)
T5 construct: His-GST (cleaved yes); made in house; host or cells: E. coli BL21-Gold(DE3)
T5 sequence (Q9BXW4 1-126 limits assumed): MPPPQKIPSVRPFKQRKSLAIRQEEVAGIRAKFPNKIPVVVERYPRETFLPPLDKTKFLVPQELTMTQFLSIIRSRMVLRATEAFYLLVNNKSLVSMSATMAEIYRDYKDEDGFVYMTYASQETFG

T3 sequence (Q13283 11-133 limits assumed): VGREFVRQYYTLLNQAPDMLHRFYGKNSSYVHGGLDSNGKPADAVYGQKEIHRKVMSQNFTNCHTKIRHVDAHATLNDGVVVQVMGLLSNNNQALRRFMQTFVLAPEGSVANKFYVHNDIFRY
T4 sequence (Q93009 63-205 limits assumed): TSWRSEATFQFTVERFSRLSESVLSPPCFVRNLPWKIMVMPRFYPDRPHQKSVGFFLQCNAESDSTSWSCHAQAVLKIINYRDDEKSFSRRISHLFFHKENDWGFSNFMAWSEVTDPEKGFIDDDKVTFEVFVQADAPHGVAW

## CC[C@H](C)[C@H](NC(=O)[C@H](CC(=O)O)NC(=O)[C@H](CO)NC(=O)[C@@H](NC(=O)[C@@H](NC(=O)CNC(C)=O)C(C)C)C(C)C)C(=O)N[C@@H](CC(=O)O)C(=O)N[C@@H](Cc1ccc(O)cc1)C(=O)N[C@H](C(=O)N1CCC[C@H]1C(=O)N[C@@H](CC(C)C)C(=O)N[C@@H](CCCCN)C(=O)N[C@@H](CO)C(=O)N[C@@H](C)C(=O)N[C@H](C(N)=O)[C@@H](C)O)C(C)C
AP2M1
  Kd: 1600 ± 200 nM

## CC[C@H](C)[C@H](NC(=O)[C@H](Cc1ccccc1)NC(=O)[C@H](CC(N)=O)NC(=O)[C@H](Cc1ccc(O)cc1)NC(=O)[C@@H]1CCCN1C(=O)CNC(=O)[C@H](CCC(N)=O)NC(=O)[C@H](CCSC)NC(=O)[C@H](CCC(N)=O)NC(=O)[C@H](C)NC(C)=O)C(=O)N[C@@H](CCC(N)=O)C(=O)N[C@@H](CC(=O)O)C(=O)N[C@@H](CO)C(=O)N[C@@H](CCSC)C(=O)N[C@@H](CC(C)C)C(=O)N[C@@H](CC(=O)O)C(N)=O [CAPRIN1 364-379 Human] (Ac-AQMQGPYNFIQDSMLD-NH2)
NTF2 domain of G3BP2
  Kd: 174 µM
NTF2 domain of G3BP1
  IC50: 46 µM

## CC(=O)N[C@@H](CCC(=O)O)C(=O)N[C@@H](CO)C(=O)N[C@@H](CC(C)C)C(=O)N1CCC[C@H]1C(=O)N[C@@H](Cc1ccccc1)C(=O)N[C@@H](CO)C(=O)N[C@@H](Cc1ccccc1)C(=O)NCC(=O)N[C@H](C(=O)N[C@@H](CC(C)C)C(=O)N[C@@H](CO)C(=O)N[C@@H](CO)C(=O)N[C@@H](Cc1c[nH]c2ccccc12)C(=O)N[C@@H](CCC(=O)O)C(=O)N[C@@H](CC(C)C)C(=O)N[C@@H](CCC(=O)O)C(=O)O)[C@@H](C)O [DDIT3 4-19 Human] (Ac-ESLPFSFGTLSSWELE-OH)
NTF2 domain of G3BP2
  Kd: 14 µM
NTF2 domain of G3BP1
  IC50: 44 µM
  Ki: 14 µM

## CC(=O)N[C@@H](C)C(=O)N1CCC[C@H]1C(=O)N[C@@H](CCCNC(=N)N)C(=O)N[C@@H](C)C(=O)N[C@H](C(=O)N[C@H](C(=O)N[C@@H](Cc1ccccc1)C(=O)NCC(=O)N[C@@H](CC(=O)O)C(=O)N[C@@H](CC(N)=O)C(=O)N[C@@H](CC(N)=O)C(=O)N[C@@H](CC(=O)O)C(=O)N[C@@H](CC(N)=O)C(=O)N[C@@H](CC(N)=O)C(=O)N[C@H](C(=O)N[C@@H](Cc1ccc(O)cc1)C(N)=O)[C@@H](C)O)[C@@H](C)O)C(C)C [N 6-20 Mers1] (Ac-APRAVTFGDNNDNNTY-NH2)
NTF2 domain of G3BP2
  Kd: 26 µM
  Ki: 26 µM
NTF2 domain of G3BP1
  Kd: 51 ± 2 µM
  Ki: 51 µM

## CC[C@H](C)[C@H](NC(=O)[C@H](CCCNC(=N)N)NC(=O)[C@@H]1CCCN1C(=O)[C@H](C)NC(C)=O)C(=O)N[C@H](C(=O)N[C@@H](Cc1ccccc1)C(=O)NCC(=O)NCC(=O)N1CCC[C@H]1C(=O)N[C@@H](CO)C(=O)N[C@@H](CC(=O)O)C(=O)N[C@@H](CO)C(=O)N[C@H](C(=O)NCC(=O)N[C@@H](CO)C(=O)N[C@@H](Cc1ccc(O)cc1)C(N)=O)[C@@H](C)O)[C@@H](C)O [N 12-26 Sars-CoV2] (Ac-APRITFGGPSDSTGSY-NH2)
NTF2 domain of G3BP2
  IC50: 10 µM
NTF2 domain of G3BP1
  IC50: 17 µM
  Kd: 4 µM
  Ki: 4 µM

## CC[C@H](C)[C@H](NC(=O)[C@H](CCCNC(=N)N)NC(=O)[C@@H]1CCCN1C(=O)[C@H](C)NC(C)=O)C(=O)N[C@H](C(=O)N[C@@H](Cc1ccccc1)C(=O)NCC(=O)NCC(=O)N1CCC[C@H]1C(=O)N[C@H](C(=O)N[C@@H](CC(=O)O)C(=O)N[C@@H](CO)C(=O)N[C@H](C(=O)N[C@@H](CC(=O)O)C(=O)N[C@@H](CC(N)=O)C(=O)N[C@@H](Cc1ccc(O)cc1)C(N)=O)[C@@H](C)O)[C@@H](C)O)[C@@H](C)O [N 13-27 Sars-CoV] (Ac-APRITFGGPTDSTDNY-NH2)
NTF2 domain of G3BP1
  IC50: 10 µM

## CC(=O)N[C@@H](CCC(N)=O)C(=O)NCC(=O)N[C@@H](CCCCN)C(=O)N1CCC[C@H]1C(=O)N[C@@H](CC(C)C)C(=O)N[C@@H](CCC(=O)O)C(=O)N[C@@H](Cc1ccccc1)C(=O)NCC(=O)N[C@@H](C)C(=O)N[C@H](C(=O)N[C@@H](CO)C(=O)N[C@@H](C)C(=O)N[C@@H](C)C(=O)N[C@@H](CC(C)C)C(=O)N[C@@H](CCC(N)=O)C(=O)N[C@@H](Cc1ccc(O)cc1)C(N)=O)[C@@H](C)O [NSP3 956-971 Sars-CoV2]
NTF2 domain of G3BP2
  Kd: 35 ± 13 µM
  Ki: 35 µM

## CC(=O)N[C@@H](CCC(N)=O)C(=O)NCC(=O)N[C@@H](CC(C)C)C(=O)N1CCC[C@H]1C(=O)N[C@@H](CC(C)C)C(=O)N[C@@H](CCC(=O)O)C(=O)N[C@@H](Cc1ccccc1)C(=O)NCC(=O)N[C@@H](C)C(=O)N[C@@H](CO)C(=O)N[C@@H](C)C(=O)N[C@@H](CCC(=O)O)C(=O)N[C@H](C(=O)N[C@H](C(=O)N[C@@H](CCCNC(=N)N)C(=O)N[C@@H](Cc1ccc(O)cc1)C(N)=O)C(C)C)[C@@H](C)O [NSP3 958-972 Sars-CoV]
NTF2 domain of G3BP2
  Kd: 47 ± 2 µM
  Ki: 47 µM
NTF2 domain of G3BP1
  Kd: 119 ± 5 µM
  Ki: 119 µM

## CC(=O)N[C@@H](CC(C)C)C(=O)N[C@H](C(=O)N[C@@H](Cc1ccccc1)C(=O)NCC(=O)N[C@@H](CC(=O)O)C(=O)N[C@@H](Cc1ccccc1)C(=O)N[C@@H](CC(=O)O)C(=O)N[C@@H](CCC(=O)O)C(=O)N[C@@H](Cc1c[nH]cn1)C(=O)N[C@@H](CCC(=O)O)C(=O)N[C@H](C(=O)N[C@@H](CC(=O)O)C(=O)N[C@@H](Cc1ccc(O)cc1)C(N)=O)C(C)C)[C@@H](C)O [NSP3 1785-1796 SFV]
NTF2 domain of G3BP2
  IC50: 13 µM
NTF2 domain of G3BP1
  IC50: 23 µM

## CC[C@H](C)[C@H](NC(=O)CNC(=O)[C@H](CO)NC(=O)[C@H](C)NC(=O)[C@H](CC(C)C)NC(=O)[C@H](C)NC(=O)[C@H](CC(=O)O)NC(=O)[C@@H](NC(=O)[C@H](CCC(=O)O)NC(=O)[C@H](Cc1c[nH]cn1)NC(=O)[C@H](CCC(=O)O)NC(=O)[C@H](CC(=O)O)NC(=O)[C@H](Cc1ccccc1)NC(=O)[C@H](CC(=O)O)NC(=O)CNC(=O)[C@H](Cc1ccccc1)NC(=O)[C@@H](NC(=O)[C@H](CC(C)C)NC(C)=O)[C@@H](C)O)C(C)C)C(=O)N[C@H](C(=O)N[C@@H](Cc1ccccc1)C(=O)NCC(=O)N[C@@H](CC(=O)O)C(=O)N[C@@H](Cc1ccccc1)C(=O)N[C@@H](CC(=O)O)C(=O)N[C@@H](CC(=O)O)C(=O)N[C@@H](Cc1ccc(O)cc1)C(N)=O)[C@@H](C)O [NSP3 1785-1809 SFV]
NTF2 domain of G3BP2
  Ki: 0.15 µM
NTF2 domain of G3BP1
  Kd: 0.3 µM
  Ki: 0.3 µM
  binds stronger than the SARS-CoV-2 N peptide to both G3BP1 and G3BP2 (fold): approximately 10 fold

## CC[C@H](C)[C@H](NC(=O)CNC(=O)[C@H](CO)NC(=O)[C@H](C)NC(=O)[C@H](CC(C)C)NC(=O)[C@H](C)NC(=O)[C@H](CC(=O)O)NC(C)=O)C(=O)N[C@H](C(=O)N[C@@H](Cc1ccccc1)C(=O)NCC(=O)N[C@@H](CC(=O)O)C(=O)N[C@@H](Cc1ccccc1)C(=O)N[C@@H](CC(=O)O)C(=O)N[C@@H](CC(=O)O)C(=O)N[C@@H](Cc1ccc(O)cc1)C(N)=O)[C@@H](C)O [NSP3 1796-1809 SFV]
NTF2 domain of G3BP2
  IC50: 11 µM

## CC(C)C[C@H](NC(=O)[C@@H](NC(=O)[C@H](CCC(=O)O)NC(=O)[C@H](Cc1ccccc1)NC(=O)[C@H](CO)NC(=O)[C@H](CC(N)=O)NC(=O)[C@H](CO)NC(=O)[C@@H](NC(=O)[C@H](CC(=O)O)NC(=O)[C@@H](N)C(C)C)[C@@H](C)O)C(C)C)C(=O)N[C@@H](C)C(=O)N[C@H](C(=O)N[C@@H](CCC(=O)O)C(=O)N[C@@H](CC(=O)O)C(=O)N[C@H](C(=O)N[C@@H](CCC(N)=O)C(=O)N[C@@H](Cc1ccc(O)cc1)C(=O)O)[C@@H](C)O)C(C)C [NSP3 1996-2011 Sars-CoV]
USP7
  IC50: 210 µM
  Kd: 29 ± 2 µM
  Ki: 29 µM
MAP1LC3C
  IC50: 200 µM
  Kd: 28 ± 1 µM
  Ki: 28 µM

## CC[C@H](C)[C@H](NC(=O)[C@@H]1CCCN1C(=O)[C@@H]1CCCN1C(=O)[C@@H](NC(=O)[C@@H]1CCCN1C(C)=O)C(C)C)C(=O)N[C@@H](CCC(=O)O)C(=O)N[C@@H](Cc1ccccc1)C(=O)NCC(=O)N[C@H](C(=O)N[C@@H](CO)C(=O)N1CCC[C@H]1C(=O)N[C@@H](CCCCN)C(=O)N[C@@H](CC(=O)O)C(=O)N[C@@H](CO)C(=O)N[C@@H](CC(=O)O)C(=O)N[C@@H](Cc1ccc(O)cc1)C(N)=O)C(C)C [PRRC2B 1780-1794 Human] (Ac-PVPPIEFGVSPKDSDY-NH2)
NTF2 domain of G3BP2
  IC50: 53 µM
  Kd: 10 µM
NTF2 domain of G3BP1
  IC50: 33 µM
  Ki: 10 µM

## CC(=O)N1CCC[C@H]1C(=O)N[C@@H](CO)C(=O)N[C@@H](CCCCN)C(=O)N[C@@H](CC(C)C)C(=O)N1CCC[C@H]1C(=O)N[C@H](C(=O)N[C@@H](Cc1ccccc1)C(=O)NCC(=O)N[C@@H](C)C(=O)N1CCC[C@H]1C(=O)N[C@@H](CCC(=O)O)C(=O)N[C@@H](CCC(N)=O)C(=O)N[C@@H](CC(C)C)C(=O)N[C@H](C(=O)N[C@@H](CC(=O)O)C(=O)N[C@@H](Cc1ccc(O)cc1)C(N)=O)C(C)C)[C@@H](C)O [TRIM25 400-414 Human] (Ac-PSKLPTFGAPEQLVDY-NH2)
NTF2 domain of G3BP2
  IC50: 53 µM
  Kd: 46 µM
NTF2 domain of G3BP1
  Ki: 46 µM

## CC(=O)N[C@@H](CC(N)=O)C(=O)N[C@@H](CC(C)C)C(=O)N[C@@H](CCC(N)=O)C(=O)N[C@@H](Cc1ccccc1)C(=O)NCC(=O)N[C@@H](C)C(=O)N[C@@H](CC(C)C)C(=O)N[C@@H](CCC(N)=O)C(=O)N[C@@H](Cc1ccccc1)C(=O)NCC(=O)N[C@@H](CO)C(=O)N[C@@H](CCC(=O)O)C(=O)N1CCC[C@H]1C(=O)N[C@H](C(=O)N[C@@H](Cc1ccc(O)cc1)C(=O)O)C(C)C [UBAP2L 515-528 Human] (Ac-NLQFGALQFGSEPVY-OH)
NTF2 domain of G3BP2
  Kd: 34 µM
NTF2 domain of G3BP1
  Ki: 34 µM
